Assay results: patent publication US5491145A, “Imidazopyridazines, their production and use” (Takeda Chemical Industries, Ltd., priority 1992, dated 1996)

These molecules were tested on PAF-induced bronchoconstriction in guinea pigs (assay: Effect on platelet activating factor (PAF)-induced guinea pig bronchoconstriction (Konzett-Roessler method)). Details: 3 mg/kg, administered orally one hour before PAF (1 μg/kg i.v.).
Type: in vivo, guinea pig (male Hartley)
Description: Effect on platelet activating factor (PAF)-induced guinea pig bronchoconstriction Male Hartley guinea pigs (body weights about 500 g) were used. Bronchoconstriction induced by PAF, 1 μg/kg i.v., in guinea pigs was measured using to the method of Konzett-Roessler. With the guinea pig immobilized in the dorsal position, tracheotomy was performed under urethane (1.5 g/kg i.v.) anesthesia and the trachea was connected through a cannula to a respirator. The side branch of the tracheal cannula was connected to a transducer (model 7020, Ugobasile). With the volume of air per feed being controlled at 3-7 ml, the ventilation frequency at 70/min. and the pulmonary loading pressure at 10 cm H2 O, the volume of overflow air was recorded on a […], San-ei Sokki) through the transducer. After administration of gallamine (1 mg/kg i.v.), PAF, 1 μg/kg, dissolved in physiological saline was administered through a jugular vein cannula and the induced bronchoconstriction was recorded for 15 minutes. The drug suspended in a 5% solution of gum arabic was administered orally in a dose of 10 mg/kg or 3 mg/kg one hour before PAF treatment: The results are presented in Table 1.

In order of rising “% Inhibition of PAP-induced bronchoconstriction” value:
1. 6-(2,2-diethyl-5-sulfamoyl-1-pentyloxy)-7-methylimidazo[1,2-b]pyridazine [Example 17]  54%
2. CCC(C)(COc1nn2ccnc2cc1C)CS(N)(=O)=O (stereo not shown) [Example 20]  57%
3. Cc1cc2nccn2nc1OCC(C)(C)CCS(N)(=O)=O [Example 11, 6-(2,2-dimethyl-4-sulfamoyl-1-butoxy)-7-methylimidazo[1,2-b]pyridazine]  58%
4. CCC(CC)(COc1nn2ccnc2cc1C)CS(N)(=O)=O.Cl [Example 15, 6-(2,2-diethyl-3-sulfamoyl-1-propoxy)-7-methylimidazo[1,2-b]pyridazine hydrochloride]  80%

Same assay, conditions: 10 mg/kg, administered orally one hour before PAF (1 μg/kg i.v.)

In order of falling “% Inhibition of PAP-induced bronchoconstriction” value:
1. Cc1cc(OCC(C)(C)CS(N)(=O)=O)nn2ccnc12 [Example 5, 6-(2,2-dimethyl-3-sulfamoyl-1-propoxy)-8-methylimidazo[1,2-b]pyridazine]  90%
2. Cc1cc2nccn2nc1OCC(C)(C)CS(N)(=O)=O [Example 3, 6-(2,2-dimethyl-3-sulfamoyl-1-propoxy)-7-methylimidazo[1,2-b]pyridazine]  76%
3. Cc1cc2nccn2nc1OCC(C)(C)CCS(N)(=O)=O [Example 11, 6-(2,2-dimethyl-4-sulfamoyl-1-butoxy)-7-methylimidazo[1,2-b]pyridazine]  71%
